Reference: ChEMBL document CHEMBL2380194, “Structure-based design of HSPA5 inhibitors: from peptide to small molecule inhibitors” (Bioorg Med Chem Lett, 2013)
The source made the active and inactive calls. The calls are words filed in the database; no cut-off is given here.

Legend:
[1] = Cytotoxicity against human PNT2 cells assessed as cell viability at 50 uM after 72 hrs by cell titre glo assay; type: cell-based; conditions: pnt2, 72 h
[2] = tested on: HCT-116; experiment: Cytotoxicity against human HCT116 cells assessed as cell viability at 50 uM after 72 hrs by cell titre glo assay relative to control; type: functional; conditions: HCT-116, 72 h, read-out: Activity
[3] = tested on: HCT-116; experiment: Cytotoxicity against human HCT116 cells assessed as cell viability at 0.1 to 100 uM after 48 hrs by cell titre glo assay; type: functional, cell-based
[4] = Cytotoxicity against human PNT2 cells assessed as growth inhibition at 0.1 to 10 uM after 72 hrs by cell titre glo assay; type: cell-based; conditions: pnt2, 72 h
[5] = Cytotoxicity against human DK1 cells assessed as growth inhibition at 25 uM after 20 mins by green fluorescence assay relative to control; type: functional; conditions: DK1, 20 min, read-out: GI
[6] = Cytotoxicity against human PNT2 cells assessed as cell viability after 72 hrs by cell titre glo assay; type: cell-based; conditions: pnt2, 72 h
[7] = tested on: HCT-116; experiment: Cytotoxicity against human HCT116 cells assessed as cell viability after 72 hrs by cell titre glo assay; type: functional, cell-based
[8] = tested on: HCT-116; experiment: Cytotoxicity against human HCT116 cells assessed as cell survival at 25 uM after 72 hrs by cell titre glo assay relative to control; type: functional; conditions: HCT-116, 72 h, read-out: Survival
[9] = Cytotoxicity against human DK1 cells assessed as growth inhibition at 50 uM after 20 mins by green fluorescence assay relative to control; type: functional; conditions: DK1, 20 min, read-out: GI

O=C1c2ccccc2NC(c2cc(Cl)cc(Cl)c2O)N1CCc1ccccn1 (configuration not stated)
Activity [1]: Non-toxic
viability at 50 µM [2]: 50%
Activity [3]: Active

OC(c1c(Cl)cc(Cl)c2nc(C34CC5CC(CC(C5)C3)C4)ccc12)C1CCCCN1 (configuration not stated)
growth inhibition (GI) [4]: Toxic
Activity [3]: Active

Cc1cc(C)c2nc3c(c(C(O)C4CCCCN4)c2c1)CC/C3=C\c1ccc(Cl)cc1 (configuration not stated)
Activity [1]: Non-toxic
viability at 50 µM [2]: 50%
Activity [3]: Active

COc1ccc2nc3cc(Cl)ccc3c(Nc3ccc(O)c(CN4CCN(C)CC4)c3)c2c1
inhibition of growth at 25 µM [5]: 50%
Activity [6]: Dose-dependent effect
Activity [7]: Dose-dependent effect
viability at 25 µM [8]: 18%
Activity [3]: Active

CC[C@@]1(O)C(=O)OCc2c1cc1n(c2=O)Cc2cc3c(CN(C)C)c(O)ccc3nc2-1 [TOPOTECAN]
growth inhibition (GI) [4]: Toxic
Activity [3]: Active

OC(c1cc(-c2ccccc2)nc2c1ccc1ccccc12)C1CCCCN1 (configuration not stated)
inhibition of growth at 25 µM [5]: 50%
Activity [6]: Dose-dependent effect
Activity [7]: Dose-dependent effect
viability at 25 µM [8]: 0%
Activity [3]: Active

NC(CSC1(c2ccc(Cl)cc2)c2ccccc2-c2ccccc21)C(=O)O (configuration not stated)
inhibition of growth at 50 µM [9]: 50%
inhibition of growth at 25 µM [5]: 35%
Activity [6]: Dose-dependent effect
Activity [7]: Dose-dependent effect
Activity [3]: Active

NS(=O)(=O)c1cc2c(cc1Cl)NC(Cc1ccccc1)NS2(=O)=O (configuration not stated)
Activity [3]: inactive

CC(C)c1ccc(C(C2=C(O)C3C=CC=CC3OC2=O)c2c(O)c3ccccc3oc2=O)cc1 (configuration not stated)
Activity [3]: Active
